From patent publication US9926282B2, “Phthalazinones and isoquinolinones as rock inhibitors” (BRISTOL-MYERS SQUIBB COMPANY, priority 2013, dated 2018)

Experiments:
ROCK2 = ROCK2 (Homo sapiens (Human), UniProt O75116); experiment: ROCK assay (LABCHIP peptide phosphorylation), ROCK2; type: biochemical; settings: 5 μM ATP, 1.5 μM peptide substrate
ROCK1 = ROCK1 (Homo sapiens (Human), UniProt Q13464); experiment: ROCK assay (LABCHIP peptide phosphorylation), ROCK1; type: biochemical; settings: 5 μM ATP, 1.5 μM peptide substrate; read-out: ROCK1 IC50
Chain of ROCK1 (Q13464 whole entry, species assumed): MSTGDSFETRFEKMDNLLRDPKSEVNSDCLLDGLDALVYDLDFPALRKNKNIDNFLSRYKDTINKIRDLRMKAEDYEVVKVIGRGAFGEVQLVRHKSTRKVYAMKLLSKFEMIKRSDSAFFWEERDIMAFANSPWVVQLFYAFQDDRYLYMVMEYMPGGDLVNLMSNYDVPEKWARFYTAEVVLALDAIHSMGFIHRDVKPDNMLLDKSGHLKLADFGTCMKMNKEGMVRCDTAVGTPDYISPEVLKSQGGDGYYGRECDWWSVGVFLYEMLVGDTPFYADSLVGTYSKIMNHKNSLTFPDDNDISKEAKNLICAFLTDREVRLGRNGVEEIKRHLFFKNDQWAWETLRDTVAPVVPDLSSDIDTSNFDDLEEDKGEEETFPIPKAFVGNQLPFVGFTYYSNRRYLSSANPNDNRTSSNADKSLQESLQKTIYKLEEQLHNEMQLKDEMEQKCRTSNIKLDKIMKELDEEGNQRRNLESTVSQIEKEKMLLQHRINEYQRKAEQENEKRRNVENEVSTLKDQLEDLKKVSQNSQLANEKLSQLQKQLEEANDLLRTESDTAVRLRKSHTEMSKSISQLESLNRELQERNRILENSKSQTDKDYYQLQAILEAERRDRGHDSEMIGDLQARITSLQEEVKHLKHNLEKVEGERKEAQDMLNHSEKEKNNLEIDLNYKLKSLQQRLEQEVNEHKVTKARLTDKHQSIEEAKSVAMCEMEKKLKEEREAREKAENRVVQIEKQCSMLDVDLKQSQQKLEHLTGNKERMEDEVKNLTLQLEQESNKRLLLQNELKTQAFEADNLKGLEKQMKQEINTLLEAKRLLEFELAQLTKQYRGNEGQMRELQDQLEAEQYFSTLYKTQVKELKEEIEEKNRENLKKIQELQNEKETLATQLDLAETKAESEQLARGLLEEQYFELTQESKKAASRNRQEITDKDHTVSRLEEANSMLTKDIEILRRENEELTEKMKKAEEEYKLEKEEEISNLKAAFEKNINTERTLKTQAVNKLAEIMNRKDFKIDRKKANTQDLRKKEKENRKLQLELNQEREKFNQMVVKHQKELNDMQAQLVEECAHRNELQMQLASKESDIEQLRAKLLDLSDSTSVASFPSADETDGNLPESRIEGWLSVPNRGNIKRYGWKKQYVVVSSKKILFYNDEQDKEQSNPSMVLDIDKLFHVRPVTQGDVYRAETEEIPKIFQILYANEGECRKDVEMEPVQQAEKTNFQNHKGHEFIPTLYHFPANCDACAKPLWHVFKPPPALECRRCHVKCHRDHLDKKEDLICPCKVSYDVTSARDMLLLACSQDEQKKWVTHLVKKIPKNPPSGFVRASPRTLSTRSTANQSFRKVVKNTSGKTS

Chain of ROCK2 (O75116 whole entry, species assumed): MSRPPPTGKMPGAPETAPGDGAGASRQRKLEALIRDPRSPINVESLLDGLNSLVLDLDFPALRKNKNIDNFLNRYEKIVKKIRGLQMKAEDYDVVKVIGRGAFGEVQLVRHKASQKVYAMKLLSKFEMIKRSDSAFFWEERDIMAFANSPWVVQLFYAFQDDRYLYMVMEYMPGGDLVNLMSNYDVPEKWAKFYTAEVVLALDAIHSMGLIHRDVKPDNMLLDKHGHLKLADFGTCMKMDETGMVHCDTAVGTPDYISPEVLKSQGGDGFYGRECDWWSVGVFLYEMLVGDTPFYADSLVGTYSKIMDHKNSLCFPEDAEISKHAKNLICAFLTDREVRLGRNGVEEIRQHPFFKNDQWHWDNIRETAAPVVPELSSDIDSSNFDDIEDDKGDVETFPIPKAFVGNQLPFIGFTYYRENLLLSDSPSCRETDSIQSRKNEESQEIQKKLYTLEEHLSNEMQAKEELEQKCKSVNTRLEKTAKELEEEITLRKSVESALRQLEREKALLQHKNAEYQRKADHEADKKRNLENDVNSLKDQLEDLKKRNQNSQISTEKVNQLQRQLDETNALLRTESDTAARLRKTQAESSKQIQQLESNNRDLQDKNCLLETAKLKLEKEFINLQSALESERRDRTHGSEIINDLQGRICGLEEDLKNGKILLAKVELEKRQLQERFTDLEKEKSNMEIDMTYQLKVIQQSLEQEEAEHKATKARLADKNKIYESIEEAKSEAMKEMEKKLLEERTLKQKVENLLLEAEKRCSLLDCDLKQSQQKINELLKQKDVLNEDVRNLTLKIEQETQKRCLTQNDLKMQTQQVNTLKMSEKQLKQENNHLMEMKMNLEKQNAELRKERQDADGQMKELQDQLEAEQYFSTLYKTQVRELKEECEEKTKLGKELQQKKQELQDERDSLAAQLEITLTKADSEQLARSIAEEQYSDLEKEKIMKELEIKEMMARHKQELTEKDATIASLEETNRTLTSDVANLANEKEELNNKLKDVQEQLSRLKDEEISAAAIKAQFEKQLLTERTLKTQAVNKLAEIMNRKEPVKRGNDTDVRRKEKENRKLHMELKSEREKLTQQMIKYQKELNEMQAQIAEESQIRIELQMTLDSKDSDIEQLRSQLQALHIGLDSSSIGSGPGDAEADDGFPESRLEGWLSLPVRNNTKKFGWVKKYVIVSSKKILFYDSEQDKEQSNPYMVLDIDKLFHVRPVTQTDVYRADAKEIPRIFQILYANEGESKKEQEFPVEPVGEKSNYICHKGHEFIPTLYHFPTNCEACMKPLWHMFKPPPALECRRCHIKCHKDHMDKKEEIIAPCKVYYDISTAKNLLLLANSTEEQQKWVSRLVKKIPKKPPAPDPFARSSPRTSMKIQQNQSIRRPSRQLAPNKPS

IC50 (ROCK2) [µM] | IC50 (ROCK1) [µM] | SMILES
0.0001 to 0.1 | 0.0001 to 0.1 | O=C(Nc1ccc(-c2c[nH]c(=O)c3ccccc23)cc1)c1nc2c(s1)CCCC2 [Example 246, N-(4-(1-Oxo-1,2-dihydroisoquinolin-4-yl)phenyl)-4,5,6,7-tetrahydrobenzo[d]thiazole-2-carboxamide]
0.0001 to 0.1 | 0.0001 to 0.1 | O=C(Nc1ccc(-c2c[nH]c(=O)c3ccccc23)cc1)c1onc2ccccc12 [Example 247, N-(4-(1-Oxo-1,2-dihydroisoquinolin-4-yl)phenyl)benzo[c]isoxazole-3-carboxamide]
0.0001 to 0.1 | 0.101 to 1 | Cn1c(C(=O)Nc2ccc(-c3c[nH]c(=O)c4ccccc34)cc2)cc2ccccc21 [Example 248, 1-Methyl-N-(4-(1-oxo-1,2-dihydroisoquinolin-4-yl)phenyl)-1H-indole-2-carboxamide]
0.0001 to 0.1 | 0.0001 to 0.1 | O=C(Nc1ccc(-c2c[nH]c(=O)c3ccccc23)cc1)c1ccc(N2CCCCC2)cc1 [Example 249, N-(4-(1-Oxo-1,2-dihydroisoquinolin-4-yl)phenyl)-4-(piperidin-1-yl)benzamide]
0.0001 to 0.1 | 0.101 to 1 | O=C(Nc1ccc(-c2c[nH]c(=O)c3ccccc23)cc1)c1ccc(N2CCCC2)cc1 [Example 251, N-(4-(1-Oxo-1,2-dihydroisoquinolin-4-yl)phenyl)-4-(pyrrolidin-1-yl)benzamide]
0.0001 to 0.1 | 0.101 to 1 | CCOc1ccc2c(c1)N(C(=O)Cc1ccc(-c3c[nH]c(=O)c4ccccc34)cc1)CC2 [Example 254, 4-(4-(2-(6-Ethoxyindolin-1-yl)-2-oxoethyl)phenyl)isoquinolin-1(2H)-one]
0.101 to 1 | 1 to 50 | COc1cc2c(-c3ccc(CC(=O)N4Cc5ccccc5C4)cc3)c[nH]c(=O)c2cc1OC [Example 255, 4-(4-(2-(Isoindolin-2-yl)-2-oxoethyl)phenyl)-6,7-dimethoxyisoquinolin-1(2H)-one]
0.0001 to 0.1 | 1 to 50 | COc1ccc2c(c1)N(C(=O)Nc1ccc(-c3c[nH]c(=O)c4cc(OC)c(OC)cc34)cc1)CC2 [Example 257, N-(4-(6,7-Dimethoxy-1-oxo-1,2-dihydroisoquinolin-4-yl)phenyl)-6-methoxyindoline-1-carboxamide]
0.0001 to 0.1 | 0.101 to 1 | COc1ccc2c(=O)[nH]cc(-c3ccc(CC(=O)N4Cc5ccccc5C4)cc3)c2c1 [Example 262, 4-{4-[2-(2,3-Dihydro-1H-isoindol-2-yl)-2-oxoethyl]phenyl}-6-methoxy-1,2-dihydroisoquinolin-1-one]
0.0001 to 0.1 | 0.0001 to 0.1 | CC(C)(O)COc1ccc2c(c1)N(C(=O)Cc1ccc(-c3n[nH]c(=O)c4ccccc34)cc1)CC2 [Example 265, 4-(4-(2-(6-(2-Hydroxy-2-methylpropoxy)indolin-1-yl)-2-oxoethyl)phenyl)phthalazin-1(2H)-one]
0.0001 to 0.1 | 0.0001 to 0.1 | COc1ccc2c(c1)N(C(=O)Nc1ccc(-c3c[nH]c(=O)c4ccc(OC)cc34)cc1)CC2 [Example 268, 6-Methoxy-N-(4-(6-methoxy-1-oxo-1,2-dihydroisoquinolin-4-yl)phenyl)indoline-1-carboxamide]
0.0001 to 0.1 | 1 to 50 | COc1ccc2c(=O)[nH]cc(-c3ccc(OC(=O)N4Cc5ccccc5C4)cc3)c2c1 [Example 269, 4-(6-Methoxy-1-oxo-1,2-dihydroisoquinolin-4-yl)phenyl isoindoline-2-carboxylate]
0.0001 to 0.1 | 0.0001 to 0.1 | O=C(Cc1ccc(-c2n[nH]c(=O)c3ccccc23)cc1)N1CCc2ccc(OCc3cccnc3)cc21 [Example 270, 4-(4-{2-oxo-2-[6-(pyridin-3-ylmethoxy)-2,3-dihydro-1H-indol-1-yl]ethyl}phenyl)-1,2-dihydrophthalazin-1-one]
0.0001 to 0.1 | 0.0001 to 0.1 | O=C(Cc1ccc(-c2n[nH]c(=O)c3ccccc23)cc1)N1CCc2ccc(OCc3ccccn3)cc21 [Example 271, 4-(4-{2-oxo-2-[6-(pyridin-2-ylmethoxy)-2,3-dihydro-1H-indol-1-yl]ethyl}phenyl)-1,2-dihydrophthalazin-1-one]
0.0001 to 0.1 | 0.0001 to 0.1 | O=C(Cc1ccc(-c2n[nH]c(=O)c3ccccc23)cc1)N1CCc2ccc(OCc3ccncc3)cc21 [Example 272, 4-(4-{2-oxo-2-[6-(pyridin-4-ylmethoxy)-2,3-dihydro-1H-indol-1-yl]ethyl}phenyl)-1,2-dihydrophthalazin-1-one]
0.0001 to 0.1 | 0.101 to 1 | CC(C)Oc1ccc2c(c1)CCN2C(=O)Cc1ccc(-c2n[nH]c(=O)c3ccccc23)cc1 [Example 273, 4-(4-{2-oxo-2-[5-(propan-2-yloxy)-2,3-dihydro-1H-indol-1-yl]ethyl}phenyl)-1,2-dihydrophthalazin-1-one]
0.0001 to 0.1 | 0.0001 to 0.1 | O=C(Cc1ccc(-c2n[nH]c(=O)c3ccccc23)cc1)N1CCc2ccc(O[C@@H]3CCOC3)cc21 [Example 274, 4-[4-(2-oxo-2-{6-[(3R)-oxolan-3-yloxy]-2,3-dihydro-1H-indol-1-yl}ethyl)phenyl]-1,2-dihydrophthalazin-1-one]
0.0001 to 0.1 | 0.0001 to 0.1 | O=C(Cc1ccc(-c2n[nH]c(=O)c3ccccc23)cc1)N1CCc2ccc(O[C@H]3CCOC3)cc21 [Example 275, 4-[4-(2-oxo-2-(6-[(3S)-oxolan-3-yloxy]-2,3-dihydro-1H-indol-1-yl}ethyl)phenyl]-1,2-dihydrophthalazin-1-one]
0.0001 to 0.1 | 1 to 50 | O=C(Cc1ccc(-c2n[nH]c(=O)c3ccccc23)cc1)Nc1noc2c1CCCC2 [Example 276, 2-[4-(4-oxo-3,4-dihydrophthalazin-1-yl)phenyl]-N-(4,5,6,7-tetrahydro-1,2-benzoxazol-3-yl)acetamide]
0.0001 to 0.1 | 0.101 to 1 | CN1CC[C@@H](Oc2ccc3c(c2)N(C(=O)Cc2ccc(-c4n[nH]c(=O)c5ccccc45)cc2)CC3)C1 [Example 277, 4-{4-[2-(6-{[(3R)-1-methylpyrrolidin-3-yl]oxy}-2,3-dihydro-1H-indol-1-yl)-2-oxoethyl]phenyl}-1,2-dihydrophthalazin-1-one]
0.0001 to 0.1 | 0.101 to 1 | CC(C)(C)c1cc(NC(=O)Cc2ccc(-c3n[nH]c(=O)c4ccccc34)cc2)no1 [Example 278, N-(5-tert-butyl-1,2-oxazol-3-yl)-2-[4-(4-oxo-3,4-dihydrophthalazin-1-yl)phenyl]acetamide]
0.0001 to 0.1 | 0.101 to 1 | CN(C)CCOc1ccc2c(c1)N(C(=O)Cc1ccc(-c3n[nH]c(=O)c4ccccc34)cc1)CC2 [Example 279, 4-[4-(2-{6-[2-(dimethylamino)ethoxy]-2,3-dihydro-1H-indol-1-yl}-2-oxoethyl)phenyl]-1,2-dihydrophthalazin-1-one]
0.0001 to 0.1 | 0.101 to 1 | Cc1onc(NC(=O)Cc2ccc(-c3n[nH]c(=O)c4ccccc34)cc2)c1C [Example 280, N-(dimethyl-1,2-oxazol-3-yl)-2-[4-(4-oxo-3,4-dihydrophthalazin-1-yl)phenyl]acetamide]
0.0001 to 0.1 | 0.101 to 1 | CN1CC[C@H](Oc2ccc3c(c2)N(C(=O)Cc2ccc(-c4n[nH]c(=O)c5ccccc45)cc2)CC3)C1 [Example 281, 4-{4-[2-(6-{[(3S)-1-methylpyrrolidin-3-yl]oxy}-2,3-dihydro-1H-indol-1-yl)-2-oxoethyl]phenyl}-1,2-dihydrophthalazin-1-one]

SMILES | IC50 (ROCK2) [µM] | IC50 (ROCK1) [µM]
COc1cc(C)c2c(c1)CCN2C(=O)Cc1ccc(-c2n[nH]c(=O)c3ccccc23)cc1 [Example 252, 4-(4-(2-(5-Methoxy-7-methylindolin-1-yl)-2-oxoethyl)phenyl)phthalazin-1(2H)-one] | 0.101 to 1 | 1 to 50
O=C(Cc1ccc(-c2n[nH]c(=O)c3ccccc23)cc1)N1CCc2cc(OC(F)(F)F)cc(Br)c21 [Example 253, 4-(4-(2-(7-Bromo-5-(trifluoromethoxy)indolin-1-yl)-2-oxoethyl)phenyl)phthalazin-1(2H)-one] | 0.101 to 1 | 1 to 50
CC(C)Oc1ccc2c(c1)N(C(=O)Cc1ccc(-c3n[nH]c(=O)c4ccccc34)cc1)CC2 [Example 258, 4-(4-(2-(6-Isopropoxyindolin-1-yl)-2-oxoethyl)phenyl)phthalazin-1(2H)-one] | 0.0001 to 0.1 | 0.0001 to 0.1
Cc1cc(CC(=O)N2CCc3ccccc32)ccc1-c1n[nH]c(=O)c2ccccc12 [Example 259, 4-(4-(2-(Indolin-1-yl)-2-oxoethyl)-2-methylphenyl)phthalazin-1(2H)-one] | 0.0001 to 0.1 | 0.101 to 1
Cc1cc(CC(=O)N2Cc3ccccc3C2)ccc1-c1n[nH]c(=O)c2ccccc12 [Example 260, 4-(4-(2-(Isoindolin-2-yl)-2-oxoethyl)-2-methylphenyl)phthalazin-1(2H)-one] | 0.0001 to 0.1 | 0.101 to 1
O=C(Cc1ccc(-c2n[nH]c(=O)c3ccccc23)c(F)c1)N1CCc2ccccc21 [Example 261, 4-(2-Fluoro-4-(2-(indolin-1-yl)-2-oxoethyl)phenyl)phthalazin-1(2H)-one] | 0.0001 to 0.1 | 0.0001 to 0.1
Cc1cc(CC(=O)N2Cc3ccccc3C2)ccc1-c1c[nH]c(=O)c2ccccc12 [Example 263, 4-(4-(2-(Isoindolin-2-yl)-2-oxoethyl)-2-methylphenyl)isoquinolin-1(2H)-one] | 0.0001 to 0.1 | 0.101 to 1
Cc1cc(CC(=O)N2CCc3ccccc32)ccc1-c1c[nH]c(=O)c2ccccc12 [Example 264, 4-(4-(2-(Indolin-1-yl)-2-oxoethyl)-2-methylphenyl)isoquinolin-1(2H)-one] | 0.0001 to 0.1 | 0.0001 to 0.1
COc1ccc2c(=O)[nH]cc(-c3ccc(NC(=O)N4CCc5ccccc54)cc3)c2c1 [Example 266, N-(4-(6-Methoxy-1-oxo-1,2-dihydroisoquinolin-4-yl)phenyl)indoline-1-carboxamide] | 0.0001 to 0.1 | 0.0001 to 0.1
COc1ccc2c(c1)CN(C(=O)Oc1ccc(-c3c[nH]c(=O)c4ccc(OC)cc34)cc1)C2 [Example 267, 4-(6-Methoxy-1-oxo-1,2-dihydroisoquinolin-4-yl)phenyl 5-methoxyisoindoline-2-carboxylate] | 0.0001 to 0.1 | 0.101 to 1
